In patent US9850203B2, “Autotaxin inhibitor compounds” (PharmAkea, Inc., priority 2013, dated 2017):

These molecules were tested against human autotaxin (ATX) (Homo sapiens (Human), UniProt Q13822) (assay: Human Autotaxin Assay). Conditions: concentrated conditioned media from Hep3B cells; LPC substrate, choline release.
Format: biochemical
How it was run: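 Autotaxin source: Hep3B conditioned medium concentrated 20-fold, preincubated with compound 15 min at 37° C in lyso-PLD buffer (100 mM Tris pH 9, 500 mM NaCl, 5 mM MgCl2, 5 mM CaCl2, 0.05% Triton X-100, ±0.2% fatty-acid-free HSA). 100 uM LPC (14:0) then added, 1.5-3 hours at 37° C; choline release measured.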

`Cc1c(Sc2cccc(C(=O)O)n2)c2ccc(Cl)c(F)c2n1CC(=O)N1CC2(CCC2)c2c(F)cccc21` [Compound 3-104, 6-((6-Chloro-7-fluoro-1-(2-(4′-fluorospiro[cyclobutane-1,3′-indolin]-1′-yl)-2-oxoethyl)-2-methyl-1H-indol-3-yl)thio)picolinic acid] and `Cc1c(Sc2cccc(C(=O)O)c2F)c2ccc(Cl)c(F)c2n1CC(=O)N1CC2(CCC2)c2ccccc21` [Compound 3-220, 3-((6-Chloro-7-fluoro-2-methyl-1-(2-oxo-2-(spiro[cyclobutane-1,3′-indolin]-1′-yl)ethyl)-1H-indol-3-yl)thio)-2-fluorobenzoic acid] cannot be ordered by IC50: no more than 500 nM for the first, no more than 500 nM for the second.

`Cc1c(Sc2cccc(C(=O)O)c2F)c2ccc(Cl)c(F)c2n1CC(=O)N1CC2(CCCC2)c2ccccc21` [Compound 3-221, 3-((6-Chloro-7-fluoro-2-methyl-1-(2-oxo-2-(spiro[cyclopentane-1,3′-indolin]-1′-yl)ethyl)-1H-indol-3-yl)thio)-2-fluorobenzoic acid] and `O=C(O)c1cccc(Sc2c(Cl)n(CC(=O)N3CC4(CCC4)c4ccccc43)c3c(F)c(Cl)ccc23)c1F` [Compound 4-121, Sodium 3-((2,6-dichloro-7-fluoro-1-(2-oxo-2-(spiro[cyclobutane-1,3′-indolin]-1′-yl)ethyl)-1H-indol-3-yl)thio)-2-fluorobenzoate] cannot be ordered by IC50: no more than 500 nM for the first, no more than 500 nM for the second.

`O=C(O)c1cccc(Sc2c(C3CC3)n(CC(=O)N3CCc4ccccc43)c3c(F)c(Cl)ccc23)c1F` [Compound 4-29, Sodium 3-((6-chloro-2-cyclopropyl-7-fluoro-1-(2-(indolin-1-yl)-2-oxoethyl)-1H-indol-3-yl)thio)-2-fluorobenzoate] and `O=C(O)c1cccc(Sc2c(C3CC3)n(CCN3CCc4ccccc43)c3c(F)c(Cl)ccc23)c1F` [Compound 5-4, Sodium 3-((6-chloro-2-cyclopropyl-7-fluoro-1-(2-(indolin-1-yl)ethyl)-1H-indol-3-yl)thio)-2-fluorobenzoate] cannot be ordered by IC50: no more than 500 nM for the first, no more than 500 nM for the second.

`O=C(O)c1cccc(Sc2c(Cl)n(CCN3CC4(CCC4)c4ccccc43)c3c(F)c(Cl)ccc23)c1F` [Compound 5-1, Sodium 3-((2,6-dichloro-7-fluoro-1-(2-(spiro[cyclobutane-1,3′-indolin]-1′-yl)ethyl)-1H-indol-3-yl)thio)-2-fluorobenzoate] and `O=C(O)c1cccc(Sc2c(Cl)n(CCN3CC4(CC4)c4ccccc43)c3c(F)c(Cl)ccc23)c1F` [Compound 5-2, Sodium 3-((2,6-dichloro-7-fluoro-1-(2-(spiro[cyclopropane-1,3′-indolin]-1′-yl)ethyl)-1H-indol-3-yl)thio)-2-fluorobenzoate] cannot be ordered by IC50: no more than 500 nM for the first, no more than 500 nM for the second.

Work on `CON(C)C(=O)Cn1c(C2CC2)c(Sc2cccc(C(=O)O)c2F)c2ccc(Cl)c(F)c21` [Compound 5-7, Sodium 3-((6-chloro-2-cyclopropyl-7-fluoro-1-(2-(methoxy(methyl)amino)-2-oxoethyl)-1H-indol-3-yl)thio)-2-fluorobenzoate] yielded an IC50 of 500 to 3000 nM.
